The values that follow come from US20220117972A1, “USE OF PPAR-DELTA AGONISTS IN THE TREATMENT OF MITOCHONDRIAL MYOPATHY” (Reneo Pharmaceuticals, Inc., priority 2019, published 2022).

One assay addresses T1, LXRβ (Homo sapiens, UniProt P55055).
T1 sequence (P55055 1-460): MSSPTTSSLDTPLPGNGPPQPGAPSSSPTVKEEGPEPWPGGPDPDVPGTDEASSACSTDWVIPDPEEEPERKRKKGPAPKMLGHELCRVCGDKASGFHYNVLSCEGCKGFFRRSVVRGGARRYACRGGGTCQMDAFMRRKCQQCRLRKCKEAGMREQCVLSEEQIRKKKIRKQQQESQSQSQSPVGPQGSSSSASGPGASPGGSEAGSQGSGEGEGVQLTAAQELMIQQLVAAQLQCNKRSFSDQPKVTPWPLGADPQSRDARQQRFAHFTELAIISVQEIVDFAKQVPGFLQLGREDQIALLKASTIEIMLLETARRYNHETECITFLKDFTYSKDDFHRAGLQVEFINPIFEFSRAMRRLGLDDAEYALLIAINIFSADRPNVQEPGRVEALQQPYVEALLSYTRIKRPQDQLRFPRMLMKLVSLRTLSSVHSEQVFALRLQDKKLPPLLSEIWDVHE
Kind of assay: nuclear receptor LXRβ activity. Format: cell-based.

In another assay the target is T2, FXR (Homo sapiens, UniProt Q96RI1).
T2 sequence (Q96RI1 1-486): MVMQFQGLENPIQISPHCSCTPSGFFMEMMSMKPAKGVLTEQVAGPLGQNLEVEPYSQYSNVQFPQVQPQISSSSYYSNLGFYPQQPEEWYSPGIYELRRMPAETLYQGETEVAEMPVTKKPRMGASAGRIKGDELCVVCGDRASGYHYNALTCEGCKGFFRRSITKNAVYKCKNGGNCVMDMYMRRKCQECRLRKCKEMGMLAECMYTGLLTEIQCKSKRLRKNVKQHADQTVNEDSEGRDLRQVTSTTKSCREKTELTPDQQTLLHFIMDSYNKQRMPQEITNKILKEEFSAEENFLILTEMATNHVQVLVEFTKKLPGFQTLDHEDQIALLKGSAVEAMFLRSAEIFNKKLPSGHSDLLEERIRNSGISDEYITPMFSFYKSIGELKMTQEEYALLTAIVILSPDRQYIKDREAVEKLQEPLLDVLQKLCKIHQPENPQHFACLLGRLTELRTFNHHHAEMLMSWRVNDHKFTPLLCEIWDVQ
Nature of the assay: nuclear receptor FXR activity. It counts as cell-based.

In a further assay the target is T3, PPARδ (UniProt I0FFS1).
T3 construct: This is inferred from the cell pool name 'UAS-bla-Gal4' and from the general description in b82 and b85
T3 sequence (I0FFS1 1-441): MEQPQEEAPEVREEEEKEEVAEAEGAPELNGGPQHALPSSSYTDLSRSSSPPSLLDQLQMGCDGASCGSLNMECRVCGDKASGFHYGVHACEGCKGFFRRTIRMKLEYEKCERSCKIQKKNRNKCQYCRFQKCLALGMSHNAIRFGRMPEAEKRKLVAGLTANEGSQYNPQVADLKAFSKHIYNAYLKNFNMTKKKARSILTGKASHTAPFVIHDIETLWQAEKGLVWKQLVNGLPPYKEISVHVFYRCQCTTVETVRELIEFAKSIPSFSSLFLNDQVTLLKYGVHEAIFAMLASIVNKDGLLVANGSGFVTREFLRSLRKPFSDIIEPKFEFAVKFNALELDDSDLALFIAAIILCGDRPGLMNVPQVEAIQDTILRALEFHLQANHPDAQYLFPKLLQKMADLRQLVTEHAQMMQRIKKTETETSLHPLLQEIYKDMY
Kind of assay: PPAR receptor transactivation assay, monkey PPARδ. Format: cell-based.

The target of another assay is T4, PPARα (Mus musculus, UniProt P23204).
T4 construct: expressed in transfected cells; host or cells: Jump-In GripTite HEK293
T4 sequence (P23204 239-466 limits assumed): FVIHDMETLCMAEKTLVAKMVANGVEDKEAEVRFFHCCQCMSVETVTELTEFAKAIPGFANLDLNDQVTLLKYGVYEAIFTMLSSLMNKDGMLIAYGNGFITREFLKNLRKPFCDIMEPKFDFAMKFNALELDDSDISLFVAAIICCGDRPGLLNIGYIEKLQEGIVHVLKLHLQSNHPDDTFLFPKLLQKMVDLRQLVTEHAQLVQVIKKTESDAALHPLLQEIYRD
Kind of assay: PPAR receptor transactivation assay, mouse PPARα. It counts as cell-based.

The next assay has as its system human muscle cell lines. Kind of assay: fatty acid oxidation in human muscle cell line. Format: cell-based. The conditions noted are these: in vitro.
The subject of assay [1] is PPARδ regulated genes (CPT1b, PDK4, PGC-1α). Nature of the assay: in vivo gene expression in mouse muscle, 7-day study. Conditions: male C57BL/6 mice, oral 30 mg/kg once daily 7 days, quadriceps muscle 4 h after final dose. As to the method:
Male C57BL/6 mice were administered an oral dose of Compound 1 at 30 mg/kg, once daily for 7 consecutive days. Four hours following the final dose administration on day 7, all mice were euthanized, and two samples of quadriceps muscle were dissected from the right and left limbs.

The target of a further assay is T5, LXRα (Homo sapiens, UniProt Q13133).
T5 sequence (Q13133 1-447): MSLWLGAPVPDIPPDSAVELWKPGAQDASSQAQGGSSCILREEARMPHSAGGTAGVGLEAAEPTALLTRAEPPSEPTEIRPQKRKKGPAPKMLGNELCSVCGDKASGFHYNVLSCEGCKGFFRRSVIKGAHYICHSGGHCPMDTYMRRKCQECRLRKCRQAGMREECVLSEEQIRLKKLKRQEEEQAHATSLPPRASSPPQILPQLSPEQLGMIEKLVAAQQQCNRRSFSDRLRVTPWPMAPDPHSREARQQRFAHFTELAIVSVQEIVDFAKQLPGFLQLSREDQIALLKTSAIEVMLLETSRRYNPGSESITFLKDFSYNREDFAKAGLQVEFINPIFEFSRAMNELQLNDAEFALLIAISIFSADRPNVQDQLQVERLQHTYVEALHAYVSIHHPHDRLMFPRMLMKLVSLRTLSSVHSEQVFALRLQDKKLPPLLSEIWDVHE
Kind of assay: nuclear receptor LXRα activity. Format: cell-based.

A value given as a limit tells only on which side of the number the result lay.

Consider `Cc1cc(OC/C=C(/c2ccc(F)cc2)c2ccc(C#CCN3CCOCC3)cc2)ccc1OCC(=O)O` [Compound 1, (E)-[4-[3-(4-Fluorophenyl)-3-[4-[3-(morpholin-4-yl)propynyl]phenyl]allyloxy]-2-methyl-phenoxy]acetic acid], for which the “activity on the nuclear receptor LXRβ” value on LXRβ was “did not show any”. At FXR, the “activity on the nuclear receptor FXR” value is recorded as “did not show any”. For the same molecule, the EC50 on PPARδ was 6.6 nM; at PPARα, > 10000 nM. Besides, in the assay on human muscle cell lines, the fatty acid oxidation result was “dose-dependent increase”. For the same molecule, in assay [1], the “expression patterns of PPARδ regulated genes (CPT1b, PDK4, PGC-1α)” value is reported as “altered the expression patterns”. For the same molecule, the “activity on the nuclear receptor LXRα” value at LXRα was “did not show any”.

In general, EC50 refers to the concentration that produces a half-maximal response.
